These results are taken from PubChem BioAssay (NCI).

Among the test systems are A498 renal; A549 NSCLC; ACHN renal; CCRF-CEM leukemia; EKVX NSCLC; HCC-2998 colon; HCT-116 colon; HCT-15 colon; M14 melanoma; MCF7 breast; NCI-H226 lung; SF-268 CNS; SF-539 CNS; SK-MEL-5 melanoma; SN12C renal; SR leukemia; TK-10 renal; UACC-62 melanoma; UO-31 renal; SK-MEL-2 melanoma.
What all share (test): NCI tumour cell line growth inhibition, 48 h

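The compound was tested at five concentrations on cells cultured in 96-well plates, with a 48-hour exposure period. At the TGI there is no net growth.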 Some results are limits rather than exact numbers.

On to `C=C(C)CCC1CC=[N+]([O-])OC1C(C)(C)C` (stereo not drawn), for which the TGI in the experiment with A498 renal was greater than 100 µM; in the experiment on A549 NSCLC, 51.4 µM; with ACHN renal it was greater than 100 µM; in the experiment on CCRF-CEM leukemia, 50.5 µM; in the experiment on EKVX NSCLC, greater than 100 µM; with HCC-2998 colon, greater than 100 µM. For the same molecule, the TGI in the experiment on HCT-116 colon is greater than 100 µM; with HCT-15 colon it was greater than 100 µM; in the experiment on M14 melanoma, 63.5 µM; with MCF7 breast, 89.9 µM; with NCI-H226 lung, 48.9 µM; with SF-268 CNS, greater than 100 µM. The TGI in the experiment with SF-539 CNS, with SK-MEL-5 melanoma, in the experiment on SN12C renal, with SR leukemia, in the experiment on TK-10 renal and in the experiment on UACC-62 melanoma was greater than 100 µM throughout. This molecule had a TGI in the experiment on UO-31 renal of 85.7 µM.

As for `CCCC(=O)OCOC(=O)N(C)N=Nc1ccc(C(=O)OCC)cc1`, the TGI in the experiment with A498 renal is greater than 100 µM; with A549 NSCLC, greater than 100 µM; in the experiment on ACHN renal, 56.7 µM; in the experiment with CCRF-CEM leukemia, greater than 100 µM; in the experiment on EKVX NSCLC, greater than 100 µM; with HCC-2998 colon, 45.9 µM. Besides, the TGI with HCT-116 colon is 46.6 µM; in the experiment with HCT-15 colon, 75.4 µM; with M14 melanoma, greater than 100 µM; with MCF7 breast, 45.5 µM; in the experiment on NCI-H226 lung it was greater than 100 µM; with SF-268 CNS it was greater than 100 µM. Also, the TGI was 36.3 µM with SK-MEL-2 melanoma; greater than 100 µM with SK-MEL-5 melanoma; 76.7 µM with SN12C renal; greater than 100 µM with SR leukemia; greater than 100 µM with TK-10 renal; 44.2 µM with UACC-62 melanoma. This molecule also displayed a TGI in the experiment on UO-31 renal greater than 100 µM.

Regarding `O=C(O)Cc1cccc2c(=O)c3cccc([N+](=O)[O-])c3[nH]c12`, the TGI with A498 renal, with A549 NSCLC, in the experiment with ACHN renal, with CCRF-CEM leukemia, with HCC-2998 colon and in the experiment on HCT-116 colon was greater than 100 µM each time. The TGI in the experiment on HCT-15 colon is greater than 100 µM; in the experiment with M14 melanoma it was greater than 100 µM; in the experiment with MCF7 breast it was greater than 100 µM; with SF-539 CNS, 78.1 µM; in the experiment on SK-MEL-2 melanoma, greater than 100 µM; in the experiment with SK-MEL-5 melanoma, greater than 100 µM. Also, the TGI is greater than 100 µM with SN12C renal; greater than 100 µM with SR leukemia; greater than 100 µM in the experiment with TK-10 renal; 76 µM in the experiment on UACC-62 melanoma; greater than 100 µM with UO-31 renal.

Regarding `Cc1ccc(/C=C2\Cc3cc(C)c(C)cc3C2=O)c(C(=O)O)c1`, the TGI is 61.3 µM with A498 renal; greater than 100 µM in the experiment with A549 NSCLC; greater than 100 µM with ACHN renal; greater than 100 µM in the experiment with CCRF-CEM leukemia; greater than 100 µM in the experiment on EKVX NSCLC; greater than 100 µM in the experiment with HCC-2998 colon. The TGI in the experiment on HCT-116 colon is greater than 100 µM; with HCT-15 colon, greater than 100 µM; in the experiment on MCF7 breast, greater than 100 µM; in the experiment on NCI-H226 lung, 89.1 µM; with SF-268 CNS, greater than 100 µM; in the experiment on SF-539 CNS, 74.7 µM. Further, the TGI in the experiment with SK-MEL-2 melanoma, in the experiment on SK-MEL-5 melanoma, in the experiment on SN12C renal, with SR leukemia, with TK-10 renal and with UACC-62 melanoma was greater than 100 µM each time. The molecule further came in with a TGI with UO-31 renal greater than 100 µM.

Take `BrCc1ccc(CBr)c2c1-c1c(CBr)ccc3ccc(CBr)c-2c13`: the TGI in the experiment on A498 renal, in the experiment on A549 NSCLC, in the experiment on ACHN renal, in the experiment with EKVX NSCLC, in the experiment on HCC-2998 colon and in the experiment on HCT-116 colon was greater than 100 µM in each case. Moreover, the TGI with HCT-15 colon, with M14 melanoma, in the experiment on MCF7 breast, in the experiment with NCI-H226 lung, in the experiment on SF-268 CNS and with SF-539 CNS was greater than 100 µM each time. Further, the TGI with SK-MEL-2 melanoma, in the experiment with SN12C renal, with SR leukemia, in the experiment with TK-10 renal, with UACC-62 melanoma and in the experiment on UO-31 renal was greater than 100 µM in each case.

For `CN1CCC/C1=C1/C(=O)N(c2ccccc2)N=C1c1ccc[nH]1`, the TGI with A498 renal, in the experiment with A549 NSCLC, with ACHN renal, in the experiment on CCRF-CEM leukemia, in the experiment on EKVX NSCLC and with HCC-2998 colon was greater than 100 µM in each case. The TGI in the experiment with HCT-116 colon, in the experiment with HCT-15 colon, in the experiment with M14 melanoma, in the experiment on MCF7 breast, in the experiment with NCI-H226 lung and in the experiment with SF-268 CNS was greater than 100 µM throughout. Moreover, the TGI with SK-MEL-2 melanoma, in the experiment on SK-MEL-5 melanoma, in the experiment on SN12C renal, in the experiment on SR leukemia, in the experiment with TK-10 renal and in the experiment on UACC-62 melanoma was greater than 100 µM in each case. Besides, the TGI in the experiment on UO-31 renal was greater than 100 µM.

Take `S=C(N/N=C/c1ccccn1)N1CCCCCC1`: the TGI is 0.735 µM in the experiment with A498 renal; 29.1 µM in the experiment with A549 NSCLC; 1.53 µM in the experiment with ACHN renal; 0.393 µM in the experiment on CCRF-CEM leukemia; 4.04 µM in the experiment on EKVX NSCLC; greater than 38.1 µM with HCC-2998 colon. Moreover, the TGI in the experiment with HCT-15 colon was greater than 33.5 µM; in the experiment with M14 melanoma it was 0.251 µM; in the experiment on MCF7 breast, 25.3 µM; with NCI-H226 lung, 1.94 µM; in the experiment with SF-539 CNS, 0.305 µM; in the experiment with SK-MEL-2 melanoma it was 24.8 µM. Further, the TGI amounted to 1.18 µM in the experiment with SK-MEL-5 melanoma; 0.359 µM with SN12C renal; 0.93 µM with SR leukemia; 38 µM in the experiment with TK-10 renal; 0.364 µM in the experiment with UACC-62 melanoma; 4.76 µM in the experiment on UO-31 renal.

With `CSc1nc2c3ccccc3ccn2c1C(=O)N/N=C/c1ccccc1`, the TGI in the experiment with A498 renal is greater than 100 µM; with A549 NSCLC, greater than 100 µM; in the experiment on ACHN renal, 25.3 µM; in the experiment with CCRF-CEM leukemia, greater than 100 µM; in the experiment with EKVX NSCLC it was greater than 100 µM; with HCC-2998 colon, greater than 100 µM. Besides, the TGI was 38.2 µM in the experiment on HCT-116 colon; greater than 100 µM in the experiment on HCT-15 colon; greater than 100 µM in the experiment with M14 melanoma; greater than 100 µM in the experiment with MCF7 breast; greater than 100 µM in the experiment on NCI-H226 lung; greater than 72.1 µM in the experiment on SF-268 CNS. The TGI was 9.53 µM in the experiment with SF-539 CNS; greater than 100 µM in the experiment on SK-MEL-2 melanoma; greater than 100 µM with SK-MEL-5 melanoma; greater than 100 µM in the experiment with SN12C renal; greater than 100 µM with SR leukemia; greater than 100 µM in the experiment with UACC-62 melanoma. The molecule also had a TGI with UO-31 renal of 42.7 µM.
